A word on the Km: it is the substrate concentration at which the rate is half of its maximum.

Data on one compound can be found in paper PMC4506373 (Journal of Ginseng Research, 2014).

Structures are written as SMILES.

For this assay, the system named is special ginsenosidase type-I. The following applies: 0.02 M acetate buffer pH 5.0, 45°C; hydrolysis of 3-O-Glc of Rb2 to C-O.

As to `CC(C)=CCC[C@](C)(O[C@@H]1O[C@H](CO[C@@H]2OC[C@H](O)[C@H](O)[C@H]2O)[C@@H](O)[C@H](O)[C@H]1O)[C@H]1CC[C@]2(C)[C@@H]1[C@H](O)C[C@@H]1[C@@]3(C)CC[C@H](O[C@@H]4O[C@H](CO)[C@@H](O)[C@H](O)[C@H]4O[C@@H]4O[C@H](CO)[C@@H](O)[C@H](O)[C@H]4O)C(C)(C)[C@@H]3CC[C@]12C` [Rb2], the Km turned out to be 20.4 ± 2.1 mM.
